Assay results reported in ChEMBL document CHEMBL1201862, “PubChem BioAssay data set” (2004).
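How tested: cells in 96-well plates exposed to compound for 48 hours at five concentrations. Abbreviation: GI50, concentration required for 50% inhibition of growth.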 Activity calls are given as the source filed them. Rule as the data show it: active = GI50 up to about 1.1 µM and inactive = higher.

How the values were obtained:
Test in all cases: NCI tumour cell line growth inhibition, 48 h
SK-MEL-28 = system: SK-MEL-28
KM12 = system: KM12
HT-29 = system: HT-29
IGROV-1 = system: IGROV-1
DMS-114 = system: DMS-114
RXF 631 = system: RXF 631
HCT-116 = system: HCT-116
CAKI-1 = system: CAKI-1
SNB-78 = system: SNB-78
SR = system: SR
SF-268 = system: SF-268
SK-MEL-2 = system: SK-MEL-2
MOLT-4 = system: MOLT-4
UO-31 = system: UO-31
Malme-3M = system: Malme-3M
CCRF-CEM = system: CCRF-CEM
KM-20L2 = system: KM-20L2
COLO 205 = system: COLO 205
DLD-1 = system: DLD-1
SW-620 = system: SW-620
A498 = system: A498
LXFL 529 = system: LXFL 529
HOP-92 = system: HOP-92
UACC-257 = system: UACC-257
SN12C = system: SN12C
U-251 = system: U-251
HCT-15 = system: HCT-15
SK-MEL-5 = system: SK-MEL-5
NCI-H23 = system: NCI-H23
NCI-H460 = system: NCI-H460
M14 = system: M14
A549 = system: A549
UACC-62 = system: UACC-62
HCC 2998 = system: HCC 2998
SF-295 = system: SF-295
K562 = system: K562
ACHN = system: ACHN
SNB-75 = system: SNB-75
SNB-19 = system: SNB-19
SK-OV-3 = system: SK-OV-3
OVCAR-8 = system: OVCAR-8
XF498 = system: XF498
HL-60 = system: HL-60
HOP-62 = system: HOP-62
LOX IMVI = system: LOX IMVI
786-0 = system: 786-0
TK-10 = system: TK-10
NCI-H226 = system: NCI-H226
DMS-273 = system: DMS-273
OVCAR-3 = system: OVCAR-3
M19-MEL = system: M19-MEL
EKVX = system: EKVX
SF-539 = system: SF-539
OVCAR-4 = system: OVCAR-4
NCI-H522 = system: NCI-H522
RXF 393 = system: RXF 393
HOP-18 = system: HOP-18
OVCAR-5 = system: OVCAR-5
RPMI-8226 = system: RPMI-8226

CCOC(=O)NC(=O)c1cn(CCN2CCN(C(=O)CCCCCCCCCCNc3ncnc4c3ncn4C3OC(CO)C(O)C3O)CC2)c(=O)[nH]c1=O (centres undefined)
GI50 (SK-MEL-28): > 100 µM (inactive)
GI50 (KM12): > 100 µM (inactive)
GI50 (HT-29): > 100 µM (inactive)
GI50 (IGROV-1): > 100 µM (inactive)
GI50 (DMS-114): > 100 µM (inactive)
GI50 (RXF 631): > 100 µM (inactive)
GI50 (HCT-116): > 100 µM (inactive)
GI50 (CAKI-1): > 100 µM (inactive)
GI50 (SNB-78): > 100 µM (inactive)
GI50 (SR): > 100 µM (inactive)
GI50 (SF-268): > 100 µM (inactive)
GI50 (SK-MEL-2): > 100 µM (inactive)
GI50 (MOLT-4): > 100 µM (inactive)
GI50 (UO-31): > 100 µM (inactive)
GI50 (Malme-3M): > 100 µM (inactive)
GI50 (CCRF-CEM): > 100 µM (inactive)
GI50 (KM-20L2): > 100 µM (inactive)
GI50 (COLO 205): > 100 µM (inactive)
GI50 (DLD-1): > 100 µM (inactive)
GI50 (SW-620): > 100 µM (inactive)
GI50 (A498): > 100 µM (inactive)
GI50 (LXFL 529): > 100 µM (inactive)
GI50 (HOP-92): 70.3 µM (inactive)
GI50 (UACC-257): > 100 µM (inactive)
GI50 (SN12C): > 100 µM (inactive)
GI50 (U-251): > 100 µM (inactive)
GI50 (HCT-15): > 100 µM
GI50 (SK-MEL-5): > 100 µM (inactive)
GI50 (NCI-H23): > 100 µM (inactive)
GI50 (NCI-H460): > 100 µM (inactive)
GI50 (M14): > 100 µM (inactive)
GI50 (A549): > 100 µM (inactive)
GI50 (UACC-62): > 100 µM (inactive)
GI50 (HCC 2998): > 100 µM (inactive)
GI50 (SF-295): > 100 µM (inactive)
GI50 (K562): > 100 µM (inactive)
GI50 (ACHN): > 100 µM (inactive)
GI50 (SNB-75): > 100 µM (inactive)
GI50 (SNB-19): > 100 µM (inactive)
GI50 (SK-OV-3): > 100 µM (inactive)
GI50 (OVCAR-8): > 100 µM (inactive)
GI50 (XF498): > 100 µM (inactive)
GI50 (HL-60): > 100 µM (inactive)
GI50 (HOP-62): > 100 µM (inactive)
GI50 (LOX IMVI): > 100 µM (inactive)
GI50 (786-0): > 100 µM (inactive)
GI50 (TK-10): > 100 µM (inactive)

COC(=O)c1ccccc1NC(=O)C(=O)NNC(=O)c1ccncc1
GI50 (SK-MEL-28): > 100 µM (inactive)
GI50 (KM12): > 100 µM (inactive)
GI50 (HT-29): > 100 µM (inactive)
GI50 (IGROV-1): > 100 µM (inactive)
GI50 (DMS-114): > 100 µM (inactive)
GI50 (NCI-H226): > 100 µM (inactive)
GI50 (RXF 631): > 100 µM (inactive)
GI50 (HCT-116): > 100 µM (inactive)
GI50 (CAKI-1): > 100 µM (inactive)
GI50 (SR): > 100 µM (inactive)
GI50 (SF-268): > 10 µM (inactive)
GI50 (DMS-273): > 100 µM (inactive)
GI50 (MOLT-4): > 100 µM (inactive)
GI50 (OVCAR-3): > 100 µM (inactive)
GI50 (UO-31): > 100 µM (inactive)
GI50 (Malme-3M): > 100 µM (inactive)
GI50 (CCRF-CEM): > 100 µM (inactive)
GI50 (KM-20L2): > 100 µM (inactive)
GI50 (COLO 205): > 100 µM (inactive)
GI50 (DLD-1): > 100 µM (inactive)
GI50 (SW-620): > 100 µM (inactive)
GI50 (M19-MEL): > 100 µM (inactive)
GI50 (EKVX): > 100 µM (inactive)
GI50 (LXFL 529): > 100 µM (inactive)
GI50 (HOP-92): > 100 µM (inactive)
GI50 (SF-539): > 100 µM (inactive)
GI50 (UACC-257): > 100 µM (inactive)
GI50 (SN12C): > 100 µM (inactive)
GI50 (HCT-15): > 100 µM
GI50 (SK-MEL-5): > 100 µM (inactive)
GI50 (NCI-H23): > 100 µM (inactive)
GI50 (NCI-H460): > 100 µM (inactive)
GI50 (M14): > 100 µM (inactive)
GI50 (A549): > 100 µM (inactive)
GI50 (UACC-62): > 100 µM (inactive)
GI50 (HCC 2998): > 100 µM (inactive)
GI50 (SF-295): > 100 µM (inactive)
GI50 (OVCAR-4): > 100 µM (inactive)
GI50 (ACHN): > 100 µM (inactive)
GI50 (NCI-H522): > 100 µM (inactive)
GI50 (SNB-75): > 100 µM (inactive)
GI50 (SNB-19): > 100 µM (inactive)
GI50 (SK-OV-3): > 100 µM (inactive)
GI50 (OVCAR-8): > 100 µM (inactive)
GI50 (XF498): > 100 µM (inactive)
GI50 (RXF 393): > 100 µM (inactive)
GI50 (HL-60): > 100 µM (inactive)
GI50 (HOP-62): > 100 µM (inactive)
GI50 (LOX IMVI): > 100 µM (inactive)
GI50 (HOP-18): > 100 µM (inactive)
GI50 (786-0): > 100 µM (inactive)
GI50 (TK-10): > 100 µM (inactive)

COc1cc(C(=O)Nc2cccc3ccccc23)c(Br)c(OC)c1OC
GI50 (SK-MEL-28): 89.9 µM (inactive)
GI50 (KM12): 70.3 µM (inactive)
GI50 (HT-29): > 100 µM (inactive)
GI50 (IGROV-1): 81.8 µM (inactive)
GI50 (DMS-114): 30.7 µM (inactive)
GI50 (NCI-H226): 36.3 µM (inactive)
GI50 (RXF 631): > 100 µM (inactive)
GI50 (HCT-116): 67.9 µM (inactive)
GI50 (CAKI-1): > 100 µM (inactive)
GI50 (SR): > 100 µM (inactive)
GI50 (SF-268): 97.1 µM (inactive)
GI50 (SK-MEL-2): > 100 µM (inactive)
GI50 (MOLT-4): 39.7 µM (inactive)
GI50 (OVCAR-3): > 100 µM (inactive)
GI50 (UO-31): 31.4 µM (inactive)
GI50 (Malme-3M): 67.6 µM (inactive)
GI50 (CCRF-CEM): 33.9 µM (inactive)
GI50 (KM-20L2): > 100 µM (inactive)
GI50 (COLO 205): > 100 µM (inactive)
GI50 (DLD-1): > 100 µM (inactive)
GI50 (SW-620): > 100 µM (inactive)
GI50 (M19-MEL): 58.6 µM (inactive)
GI50 (EKVX): > 100 µM (inactive)
GI50 (LXFL 529): 31.1 µM (inactive)
GI50 (HOP-92): 42.2 µM (inactive)
GI50 (SF-539): > 100 µM (inactive)
GI50 (OVCAR-5): 64.4 µM (inactive)
GI50 (UACC-257): > 100 µM (inactive)
GI50 (SN12C): > 100 µM (inactive)
GI50 (U-251): > 100 µM (inactive)
GI50 (HCT-15): > 100 µM
GI50 (SK-MEL-5): 41.1 µM (inactive)
GI50 (NCI-H23): 82 µM (inactive)
GI50 (NCI-H460): 64.9 µM (inactive)
GI50 (M14): > 100 µM (inactive)
GI50 (A549): 66.2 µM (inactive)
GI50 (UACC-62): 45.2 µM (inactive)
GI50 (HCC 2998): > 100 µM (inactive)
GI50 (SF-295): > 100 µM (inactive)
GI50 (K562): 43.5 µM (inactive)
GI50 (OVCAR-4): 16.5 µM (inactive)
GI50 (ACHN): 81.7 µM (inactive)
GI50 (NCI-H522): 56.9 µM (inactive)
GI50 (RPMI-8226): 42.8 µM (inactive)
GI50 (SNB-75): 62.2 µM (inactive)
GI50 (SNB-19): > 100 µM (inactive)
GI50 (SK-OV-3): > 100 µM (inactive)
GI50 (OVCAR-8): 0.0416 µM (active)
GI50 (RXF 393): 42.7 µM (inactive)
GI50 (HL-60): 24.2 µM (inactive)
GI50 (HOP-62): > 100 µM (inactive)
GI50 (LOX IMVI): 80 µM (inactive)
GI50 (HOP-18): 4.33 µM (inactive)
GI50 (786-0): 1.38 µM (inactive)
GI50 (TK-10): > 100 µM (inactive)
